Measured values as given in article doi:10.1101/2023.09.11.557162v4 (biorxiv, 2025).
Read-outs that look alike come from different tables or passages of the source.

How the values were obtained:
Experiment in all cases: DNA-dependent ATPase assay
Assay type in all cases: biochemical
CHD4 = CHD4 (Homo sapiens, UniProt Q14839)
SMARCA4 = SMARCA4 (Homo sapiens, UniProt P51532)
SMARCA2 = SMARCA2 (Homo sapiens, UniProt P51531)
Chain of SMARCA2 (P51531 whole entry): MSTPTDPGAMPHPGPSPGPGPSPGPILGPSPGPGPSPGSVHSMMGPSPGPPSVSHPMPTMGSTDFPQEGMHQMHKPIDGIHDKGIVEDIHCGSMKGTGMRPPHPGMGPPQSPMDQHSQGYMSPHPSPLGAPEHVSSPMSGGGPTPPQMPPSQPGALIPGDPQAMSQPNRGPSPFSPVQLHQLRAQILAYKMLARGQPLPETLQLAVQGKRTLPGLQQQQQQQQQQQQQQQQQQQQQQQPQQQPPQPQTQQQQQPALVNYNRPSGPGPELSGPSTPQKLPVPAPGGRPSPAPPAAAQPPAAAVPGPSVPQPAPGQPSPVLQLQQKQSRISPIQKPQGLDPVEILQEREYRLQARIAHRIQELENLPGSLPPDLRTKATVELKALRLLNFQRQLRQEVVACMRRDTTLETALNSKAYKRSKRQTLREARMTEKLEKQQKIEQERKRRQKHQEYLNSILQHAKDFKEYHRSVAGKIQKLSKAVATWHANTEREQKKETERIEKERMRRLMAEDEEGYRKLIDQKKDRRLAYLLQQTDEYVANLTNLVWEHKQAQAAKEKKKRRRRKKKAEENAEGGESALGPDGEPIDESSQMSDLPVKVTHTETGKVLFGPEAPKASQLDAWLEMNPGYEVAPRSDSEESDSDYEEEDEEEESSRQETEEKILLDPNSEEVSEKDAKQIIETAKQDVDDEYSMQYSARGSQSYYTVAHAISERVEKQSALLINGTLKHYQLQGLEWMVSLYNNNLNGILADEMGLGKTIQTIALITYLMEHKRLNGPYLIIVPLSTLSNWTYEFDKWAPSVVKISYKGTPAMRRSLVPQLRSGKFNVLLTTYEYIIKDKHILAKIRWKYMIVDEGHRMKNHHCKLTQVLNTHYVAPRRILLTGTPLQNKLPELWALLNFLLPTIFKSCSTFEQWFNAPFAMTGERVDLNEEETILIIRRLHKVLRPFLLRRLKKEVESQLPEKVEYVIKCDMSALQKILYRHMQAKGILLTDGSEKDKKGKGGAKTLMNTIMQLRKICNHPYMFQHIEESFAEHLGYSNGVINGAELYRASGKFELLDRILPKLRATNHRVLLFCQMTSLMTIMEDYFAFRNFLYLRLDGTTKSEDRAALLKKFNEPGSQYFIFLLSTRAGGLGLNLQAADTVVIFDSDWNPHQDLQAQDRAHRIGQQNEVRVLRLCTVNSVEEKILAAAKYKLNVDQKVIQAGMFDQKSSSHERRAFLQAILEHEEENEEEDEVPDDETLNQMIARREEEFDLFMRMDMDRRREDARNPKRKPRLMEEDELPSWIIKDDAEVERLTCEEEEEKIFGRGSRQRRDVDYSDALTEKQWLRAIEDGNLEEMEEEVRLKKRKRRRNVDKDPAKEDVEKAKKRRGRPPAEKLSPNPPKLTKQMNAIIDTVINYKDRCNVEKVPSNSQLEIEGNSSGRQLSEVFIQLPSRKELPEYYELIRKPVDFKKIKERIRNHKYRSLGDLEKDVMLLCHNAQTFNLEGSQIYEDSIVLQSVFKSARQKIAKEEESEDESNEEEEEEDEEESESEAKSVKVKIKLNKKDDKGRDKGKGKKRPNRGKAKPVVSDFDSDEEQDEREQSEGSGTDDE

Chain of SMARCA4 (P51532 whole entry): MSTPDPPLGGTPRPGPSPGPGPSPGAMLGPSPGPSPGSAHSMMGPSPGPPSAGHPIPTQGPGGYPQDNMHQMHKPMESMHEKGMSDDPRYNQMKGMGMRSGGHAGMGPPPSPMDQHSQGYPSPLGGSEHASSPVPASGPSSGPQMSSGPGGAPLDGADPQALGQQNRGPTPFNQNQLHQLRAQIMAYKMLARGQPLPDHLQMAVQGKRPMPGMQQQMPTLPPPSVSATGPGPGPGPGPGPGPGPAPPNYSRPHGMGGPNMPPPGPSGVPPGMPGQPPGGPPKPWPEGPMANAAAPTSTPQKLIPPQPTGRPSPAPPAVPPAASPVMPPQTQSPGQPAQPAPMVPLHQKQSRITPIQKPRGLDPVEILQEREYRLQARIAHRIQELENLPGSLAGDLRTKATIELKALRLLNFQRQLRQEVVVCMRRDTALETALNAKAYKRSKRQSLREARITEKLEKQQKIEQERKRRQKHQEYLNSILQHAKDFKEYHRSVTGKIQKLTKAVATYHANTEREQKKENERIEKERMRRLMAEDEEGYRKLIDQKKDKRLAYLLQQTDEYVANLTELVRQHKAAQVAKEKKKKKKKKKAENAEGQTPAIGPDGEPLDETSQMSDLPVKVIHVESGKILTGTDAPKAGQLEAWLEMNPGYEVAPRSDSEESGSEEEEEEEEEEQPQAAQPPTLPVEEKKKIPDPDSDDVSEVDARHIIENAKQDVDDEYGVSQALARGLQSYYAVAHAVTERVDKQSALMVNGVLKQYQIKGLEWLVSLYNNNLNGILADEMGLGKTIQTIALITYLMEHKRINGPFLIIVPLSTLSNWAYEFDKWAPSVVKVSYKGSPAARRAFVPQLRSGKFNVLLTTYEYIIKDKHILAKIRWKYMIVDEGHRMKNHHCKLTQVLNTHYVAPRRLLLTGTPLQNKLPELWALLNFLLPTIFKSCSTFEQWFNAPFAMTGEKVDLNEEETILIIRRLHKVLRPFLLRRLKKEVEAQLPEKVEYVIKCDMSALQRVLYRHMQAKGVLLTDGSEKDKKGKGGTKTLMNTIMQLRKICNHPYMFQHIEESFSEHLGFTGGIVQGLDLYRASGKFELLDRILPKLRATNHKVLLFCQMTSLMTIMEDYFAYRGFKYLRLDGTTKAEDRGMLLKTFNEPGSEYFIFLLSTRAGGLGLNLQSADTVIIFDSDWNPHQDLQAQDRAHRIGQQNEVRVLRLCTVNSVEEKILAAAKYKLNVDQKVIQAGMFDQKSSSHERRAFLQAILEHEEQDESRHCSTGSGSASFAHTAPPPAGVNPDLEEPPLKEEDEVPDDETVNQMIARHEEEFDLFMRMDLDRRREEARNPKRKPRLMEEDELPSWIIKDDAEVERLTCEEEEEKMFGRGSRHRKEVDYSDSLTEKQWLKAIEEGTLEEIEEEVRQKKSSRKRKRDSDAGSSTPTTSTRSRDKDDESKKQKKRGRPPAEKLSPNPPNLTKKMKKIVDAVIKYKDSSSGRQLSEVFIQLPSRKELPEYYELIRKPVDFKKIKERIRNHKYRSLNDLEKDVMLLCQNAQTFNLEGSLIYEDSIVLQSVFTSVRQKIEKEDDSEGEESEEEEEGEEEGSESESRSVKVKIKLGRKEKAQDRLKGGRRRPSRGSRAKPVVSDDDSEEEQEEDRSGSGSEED
Chain of CHD4 (Q14839 whole entry): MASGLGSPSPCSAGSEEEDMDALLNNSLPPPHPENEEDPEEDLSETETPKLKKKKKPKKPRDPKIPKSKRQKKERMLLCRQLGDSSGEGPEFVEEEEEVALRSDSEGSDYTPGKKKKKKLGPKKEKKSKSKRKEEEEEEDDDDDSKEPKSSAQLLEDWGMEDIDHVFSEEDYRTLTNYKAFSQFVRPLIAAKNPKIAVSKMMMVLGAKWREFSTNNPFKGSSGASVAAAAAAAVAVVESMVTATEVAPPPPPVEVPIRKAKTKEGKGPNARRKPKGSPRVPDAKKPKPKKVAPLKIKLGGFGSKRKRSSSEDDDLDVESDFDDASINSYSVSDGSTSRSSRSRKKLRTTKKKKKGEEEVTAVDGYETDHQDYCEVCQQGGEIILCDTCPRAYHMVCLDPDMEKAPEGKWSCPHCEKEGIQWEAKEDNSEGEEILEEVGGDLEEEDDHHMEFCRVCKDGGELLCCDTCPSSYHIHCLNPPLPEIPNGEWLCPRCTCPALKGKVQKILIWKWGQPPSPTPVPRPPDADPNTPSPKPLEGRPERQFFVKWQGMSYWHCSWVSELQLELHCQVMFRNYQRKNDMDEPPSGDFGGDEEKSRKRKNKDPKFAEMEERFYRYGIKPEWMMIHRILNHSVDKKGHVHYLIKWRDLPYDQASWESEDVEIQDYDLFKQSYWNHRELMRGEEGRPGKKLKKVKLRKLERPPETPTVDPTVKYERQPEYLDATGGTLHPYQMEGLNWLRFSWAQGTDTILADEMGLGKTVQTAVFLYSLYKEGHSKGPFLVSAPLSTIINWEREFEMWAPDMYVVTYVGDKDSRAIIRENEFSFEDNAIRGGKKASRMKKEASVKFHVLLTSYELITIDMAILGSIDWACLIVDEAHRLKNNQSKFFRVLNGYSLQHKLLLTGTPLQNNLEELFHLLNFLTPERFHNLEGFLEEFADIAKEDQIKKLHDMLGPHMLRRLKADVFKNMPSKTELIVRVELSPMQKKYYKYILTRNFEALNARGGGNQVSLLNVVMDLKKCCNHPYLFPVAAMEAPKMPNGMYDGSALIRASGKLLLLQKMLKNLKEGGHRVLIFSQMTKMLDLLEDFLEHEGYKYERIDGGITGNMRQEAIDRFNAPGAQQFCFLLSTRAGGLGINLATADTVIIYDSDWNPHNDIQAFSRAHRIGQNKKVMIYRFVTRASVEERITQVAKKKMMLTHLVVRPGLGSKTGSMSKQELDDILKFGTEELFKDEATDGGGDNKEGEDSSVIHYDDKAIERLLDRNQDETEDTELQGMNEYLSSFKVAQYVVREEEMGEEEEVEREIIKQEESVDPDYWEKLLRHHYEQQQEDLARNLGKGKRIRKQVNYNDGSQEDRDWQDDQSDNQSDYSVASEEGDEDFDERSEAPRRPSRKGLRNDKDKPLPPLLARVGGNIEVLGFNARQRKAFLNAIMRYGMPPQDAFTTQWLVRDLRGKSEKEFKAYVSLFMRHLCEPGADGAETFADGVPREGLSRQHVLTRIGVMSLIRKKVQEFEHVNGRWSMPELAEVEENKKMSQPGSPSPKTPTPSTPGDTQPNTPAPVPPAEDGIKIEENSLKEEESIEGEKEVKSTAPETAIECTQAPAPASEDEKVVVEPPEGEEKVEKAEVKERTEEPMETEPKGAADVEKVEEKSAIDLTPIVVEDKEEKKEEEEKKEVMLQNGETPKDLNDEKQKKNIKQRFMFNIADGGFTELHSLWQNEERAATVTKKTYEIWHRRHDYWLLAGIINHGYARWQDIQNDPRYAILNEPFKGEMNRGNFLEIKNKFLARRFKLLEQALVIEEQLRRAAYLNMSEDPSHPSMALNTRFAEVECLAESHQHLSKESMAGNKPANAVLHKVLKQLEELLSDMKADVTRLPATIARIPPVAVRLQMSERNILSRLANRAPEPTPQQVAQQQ

## COC[C@H](NC(=O)c1ccn(S(C)(=O)=O)c1)C(=O)Nc1nc(-c2cccc(-c3ccn(C)n3)c2)cs1 [FHT-2344]
CHD4
  IC50: > 200 µM
SMARCA4; DNA-stimulated ATPase
  IC50: 0.026 ± 0.006 µM
SMARCA2
  IC50: 0.013 ± 0.003 µM

## CN(C)S(=O)(=O)c1cccc(C(=O)NCC(=O)Nc2nc(-c3ccccc3)cs2)c1 [FHT-185]
SMARCA4
  IC50: 6.04 ± 1.04 µM
SMARCA2
  IC50: 2.5 ± 0.5 µM
